Experimental data: PMC10865871, “Homologous acetone carboxylases select Fe(II) or Mn(II) as the catalytic cofactor” (mBio, 2023)

Key:
[1] = molecular target: T1, X. autotrophicus AC (acetone carboxylase, (αβγ)2) (Xanthobacter versatilis, UniProt Q8RM03+Q8RM04); assay: EPR of active-site Mn(II); […] Moessbauer; assay type: binding; details: 10 mM AMP, 1 mM MgCl2, pH 7.6, 12 K (EPR); Mn(II)-bound enzyme
T1 construct: gene acxB; recombinant in E. coli BL21(DE3), pET-Duet vectors; N-terminal 6-His tag on beta subunit; (αβγ)2 heterohexamer; AMP site in beta, metal site in alpha; with Acetone carboxylase gamma subunit
T1 sequence (Q8RM03 1-776): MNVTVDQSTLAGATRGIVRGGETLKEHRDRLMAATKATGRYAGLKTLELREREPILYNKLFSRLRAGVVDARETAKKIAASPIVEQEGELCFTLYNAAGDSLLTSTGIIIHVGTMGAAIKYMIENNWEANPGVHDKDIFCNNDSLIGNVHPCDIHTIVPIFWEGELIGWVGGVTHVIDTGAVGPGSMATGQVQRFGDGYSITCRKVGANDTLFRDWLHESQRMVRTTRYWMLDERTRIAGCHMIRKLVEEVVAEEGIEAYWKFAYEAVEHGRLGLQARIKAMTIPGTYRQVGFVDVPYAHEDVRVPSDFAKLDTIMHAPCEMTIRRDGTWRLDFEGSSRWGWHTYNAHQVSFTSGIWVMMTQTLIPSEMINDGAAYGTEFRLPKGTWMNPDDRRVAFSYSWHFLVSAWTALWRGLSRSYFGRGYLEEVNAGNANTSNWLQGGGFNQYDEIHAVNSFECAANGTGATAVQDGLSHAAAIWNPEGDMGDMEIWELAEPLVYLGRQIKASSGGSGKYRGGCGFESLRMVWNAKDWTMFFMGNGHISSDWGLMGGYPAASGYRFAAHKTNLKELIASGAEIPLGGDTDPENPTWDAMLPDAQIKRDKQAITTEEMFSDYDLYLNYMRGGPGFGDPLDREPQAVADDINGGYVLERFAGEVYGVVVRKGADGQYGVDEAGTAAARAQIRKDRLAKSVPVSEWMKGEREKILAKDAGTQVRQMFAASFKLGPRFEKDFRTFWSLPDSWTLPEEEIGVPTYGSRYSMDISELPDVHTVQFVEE
T1 sequence (Q8RM04 1-717): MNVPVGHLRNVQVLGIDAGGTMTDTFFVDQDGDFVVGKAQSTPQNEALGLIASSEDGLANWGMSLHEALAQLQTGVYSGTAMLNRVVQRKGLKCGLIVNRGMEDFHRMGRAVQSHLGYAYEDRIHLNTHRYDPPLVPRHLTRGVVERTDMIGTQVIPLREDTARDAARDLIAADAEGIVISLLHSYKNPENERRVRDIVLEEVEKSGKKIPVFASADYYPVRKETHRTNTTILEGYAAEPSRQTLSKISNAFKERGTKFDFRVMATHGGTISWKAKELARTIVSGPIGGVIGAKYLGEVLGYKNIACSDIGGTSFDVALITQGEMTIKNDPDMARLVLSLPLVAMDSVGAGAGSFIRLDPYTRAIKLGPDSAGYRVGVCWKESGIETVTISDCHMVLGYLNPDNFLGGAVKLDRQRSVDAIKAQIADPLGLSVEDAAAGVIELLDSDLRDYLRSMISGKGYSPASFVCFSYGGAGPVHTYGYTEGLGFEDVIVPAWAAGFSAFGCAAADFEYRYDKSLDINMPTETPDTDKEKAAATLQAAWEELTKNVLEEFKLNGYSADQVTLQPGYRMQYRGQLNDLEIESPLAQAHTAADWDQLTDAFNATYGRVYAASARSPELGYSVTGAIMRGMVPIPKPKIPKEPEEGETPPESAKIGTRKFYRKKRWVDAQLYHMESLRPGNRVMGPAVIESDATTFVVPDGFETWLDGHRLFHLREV
T1 sequence (Q8RM02 2-168 partner): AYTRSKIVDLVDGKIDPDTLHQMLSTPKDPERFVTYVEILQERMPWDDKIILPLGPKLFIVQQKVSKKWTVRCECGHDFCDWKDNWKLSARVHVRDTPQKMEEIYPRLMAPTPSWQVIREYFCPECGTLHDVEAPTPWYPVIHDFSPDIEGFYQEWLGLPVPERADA

[2] = molecular target: T2, A. aromaticum AC (acetone carboxylase, (αβγ)2) (Aromatoleum aromaticum, UniProt Q5P1N4+Q5P1N5); assay: […] Moessbauer; EPR of Mn(II)-reconstituted enzyme; assay type: binding; details: 1 mM AMP, pH 7.6, 57Fe(II)-reconstituted, 80 K (Moessbauer); 10 mM AMP, 1 mM MgCl2 (EPR)
T2 construct: gene acxB; recombinant in E. coli BL21(DE3), pET-Duet vectors; N-terminal 6-His tag on beta subunit; (αβγ)2 heterohexamer; with Acetone carboxylase gamma subunit
T2 sequence (Q5P1N4 1-774): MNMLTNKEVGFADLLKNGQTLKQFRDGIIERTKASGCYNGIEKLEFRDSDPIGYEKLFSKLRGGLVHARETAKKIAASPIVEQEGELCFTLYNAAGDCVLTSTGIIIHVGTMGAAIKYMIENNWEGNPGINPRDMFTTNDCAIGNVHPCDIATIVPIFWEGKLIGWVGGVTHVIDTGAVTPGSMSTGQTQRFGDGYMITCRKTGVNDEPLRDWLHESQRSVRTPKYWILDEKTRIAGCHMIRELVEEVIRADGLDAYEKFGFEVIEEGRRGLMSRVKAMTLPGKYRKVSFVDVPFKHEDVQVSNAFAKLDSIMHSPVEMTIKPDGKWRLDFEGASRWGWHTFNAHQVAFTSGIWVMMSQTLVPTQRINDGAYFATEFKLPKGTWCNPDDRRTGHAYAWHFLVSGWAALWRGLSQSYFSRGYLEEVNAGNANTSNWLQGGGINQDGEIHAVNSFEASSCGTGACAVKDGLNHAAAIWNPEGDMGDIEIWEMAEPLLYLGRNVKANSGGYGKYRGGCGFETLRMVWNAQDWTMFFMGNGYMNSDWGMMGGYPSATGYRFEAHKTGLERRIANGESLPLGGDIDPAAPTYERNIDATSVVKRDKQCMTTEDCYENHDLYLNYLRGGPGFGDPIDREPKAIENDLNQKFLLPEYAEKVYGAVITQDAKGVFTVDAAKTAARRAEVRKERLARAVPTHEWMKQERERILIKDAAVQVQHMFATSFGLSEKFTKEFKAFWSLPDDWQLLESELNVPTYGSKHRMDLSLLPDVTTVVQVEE
T2 sequence (Q5P1N5 1-716): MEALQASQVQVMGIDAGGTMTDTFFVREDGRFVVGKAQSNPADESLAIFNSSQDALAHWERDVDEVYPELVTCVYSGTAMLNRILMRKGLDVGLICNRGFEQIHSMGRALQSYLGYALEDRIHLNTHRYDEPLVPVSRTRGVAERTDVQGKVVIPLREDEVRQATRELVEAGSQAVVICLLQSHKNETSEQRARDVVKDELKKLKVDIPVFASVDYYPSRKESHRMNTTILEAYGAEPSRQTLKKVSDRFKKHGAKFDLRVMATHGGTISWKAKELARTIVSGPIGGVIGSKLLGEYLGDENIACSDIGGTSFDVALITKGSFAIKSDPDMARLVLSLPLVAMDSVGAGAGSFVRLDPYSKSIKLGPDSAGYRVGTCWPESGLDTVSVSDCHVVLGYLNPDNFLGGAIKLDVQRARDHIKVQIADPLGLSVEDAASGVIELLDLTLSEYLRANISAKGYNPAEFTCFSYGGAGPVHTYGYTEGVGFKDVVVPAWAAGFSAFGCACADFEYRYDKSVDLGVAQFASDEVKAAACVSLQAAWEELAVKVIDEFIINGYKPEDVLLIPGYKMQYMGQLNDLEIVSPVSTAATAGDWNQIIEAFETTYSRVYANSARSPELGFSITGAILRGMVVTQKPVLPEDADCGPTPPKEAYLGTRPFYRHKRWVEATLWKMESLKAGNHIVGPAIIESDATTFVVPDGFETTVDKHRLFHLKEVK
T2 sequence (Q5P1N3 1-168 partner): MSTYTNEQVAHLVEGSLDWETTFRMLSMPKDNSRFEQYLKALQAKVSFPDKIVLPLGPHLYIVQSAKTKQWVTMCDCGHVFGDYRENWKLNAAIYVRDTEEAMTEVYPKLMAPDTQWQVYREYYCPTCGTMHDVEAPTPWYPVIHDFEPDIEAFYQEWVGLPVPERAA

## Nc1ncnc2c1ncn2[C@@H]1O[C@H](COP(=O)(O)O)[C@@H](O)[C@H]1O [AMP]
[1]
  EPR of active-site Mn(II); 57Fe Moessbauer: Upon the addition of MgAMP, the apparent Mn(II) signal sharpened and intensified
[2]
  57Fe Moessbauer; EPR of Mn(II)-reconstituted enzyme: three of which (blue, red, and orange) were affected by the addition of AMP
